According to PMC6013238, “Development of novel NEMO-binding domain mimetics for inhibiting IKK/NF-κB activation” (PLoS Biology, 2018):
Values joined by “and” are separate entries in the source; they are usually repeats but may differ in a detail not shown here. Equal entries are not always repeated.

Key:
HEK293 cells = conditions: Fig 2D; 100 μM, 24 h
Method: (A) HEK293 cells stably expressing NF-κB luciferase reporter were pretreated with indicated small molecules at 100 μM for 30 min, followed by stimulation with TNF-α (10 ng/ml) for 3 h. Luciferase activity was normalized to untreated stimulated control cells. […] (B) The dose-dependent response of ZINC12909780 was tested by NF-κB luciferase assay in HEK293 cells. Three independent experiments were performed, and data shown represent mean +/− SD. […] (D) HEK293 cells were cultured in the presence of 100 μM of indicated derivatives for 24 h, and cell survival was determined by MTT assay. Cell viability was calculated by normalizing to untreated cells. (E) Dose-dependent inhibitory effects were determined for ZINC5 at 0, 25, 50, and 100 μM by using NF-κB luciferase assay. (F) HEK293 were cultivated in the presence of ZINC5 at listed concentrations for 24 h, and cell survival was assessed by MTT assay. Data represent the mean +/− SD from 4–5 independent experiments. *P < 0.05; **P < 0.01; ***P < 0.001. Underlying data can be found in S1 Data. HEK293, human embryonic kidney 293 cells; MTT, 3-(4,5-dimethylthiazol-2-yl)-2,5-dephenyltetrazolium bromide colormetric assay for assessing cell metabolic activity; NF-κB, nuclear factor κB; TNF-α; tumor necrosis factor α; SD, standard deviation.
HEK293 cells were grown in a 96-well plate at 3 × 10^4 cells/well in triplicate and treated with DMSO or listed small molecules at indicated concentrations for 24 h. Cell survival was determined by adding 20 μl of 5 mg/ml MTT (thiazolyl blue tetrazolium bromide) to each well, followed by incubation in 37 °C for 3 h. Media were removed, and purple formazan was dissolved in 100 uL of DMSO. Absorbance was measured at 590 nm on a microplate reader (PerkinElmer, Waltham, MA). Cell viability was calculated by normalizing values to untreated controls.

JNK/p38MAPK signaling = experiment: Western blot of JNK and p38MAPK phosphorylation in Raw 264.7 cells; assay type: cell-based, mouse; conditions: 150 μM; TNF-α or LPS stimulation
Method: (§1) To determine whether the novel NBD mimetics target the NEMO-IKKβ interaction in vivo, co-immunoprecipitations were performed using extracts from Raw 264.7 macrophages (Fig 5A). […] No interaction between NEMO and TNF receptor-associated factor 2 (TRAF2) or IκBα was observed under these conditions. […] The levels of phosphorylated IKK complex, IκBα, and p65 in response to TNF-α and LPS were all reduced by SR12343 (Fig 5D & 5E). […] However, there were no changes in the levels of phospho-c-Jun N-terminal kinase (p-JNK), p-p38MAPK, total JNK, and p38MAPK by treatment with SR12343 (150 μM) in response to TNF-α or LPS stimulation (Fig 5G & 5H). […]
(§2) (A) Co-IP analysis detecting the IKKβ/NEMO interaction. […] NEMO-binding products were then analyzed for levels of IKKβ, IKKα, TRAF2, and IκBα (negative control), and levels of NEMO were used as a loading control (left panel). […] The levels of IKKβ-FLAG binding to GST-NEMO were determined by western blot analysis with GST-NEMO used as a loading control. […] Cell lysates were analyzed for activity of the IKK/NF-κB signaling pathway including activation of IKK complex, IκBα, and p65. […] Cell lysates were harvested and analyzed for activation of noncanonical NF-κB signaling, the processing of p100 to p52. […]

[1] = test system: noncanonical NF-κB pathway; experiment: Noncanonical NF-κB pathway, anti-LTβR-stimulated Raw 264.7 cells (p100 to p52 processing); assay type: cell-based, mouse; conditions: 100 μM, 30 min; anti-LTβR 8 h
Method: as §1, §2

SMILES: O=C(COC(=O)Cc1ccccc1F)Nc1ccc(Cl)cn1 [ZINC5]
- Cell viability normalized to untreated cells (MTT) (HEK293 cells): 95 and 80 and 84 and 81

SMILES: O=C(CNc1ccc(Cl)cn1)NCCc1cccc(Br)c1 [SR12343]
- Levels of p-JNK, p-p38MAPK, total JNK and p38MAPK (JNK/p38MAPK signaling): no changes
- Activation of noncanonical NF-κB pathway (p100 to p52 processing) [1]: no effect
